Drawing on patent US12173018B2, “Penicillin-binding protein inhibitors” (priority 2018, dated 2024), this text covers MIC and EC50 for 9 compounds.

The structures appear in SMILES notation. Converted amounts (≈) assume the structure as drawn. Structures can show the parent of a compound that is named as a salt. Where two headings read alike, the source gives them in different places.

Test [1] deals with engineered strain of Escherichia coli harboring CTX-M15. Put plainly: microbe, parasite or virus in culture. To be noted: Escherichia coli, read-out: Microbiological Activity (MIC in mg/L), E. coli DH5α/pLBII-CTX-M15, engineered strain producing CTX-M15. The test is classed as cell-based.
Test [2] deals with E. coli DH5α empty pLBII vector control strain. Put plainly: microbe, parasite or virus in culture. The conditions noted are these: Escherichia coli, read-out: Microbiological Activity (MIC in mg/L), E. coli DH5α/pLBII. The format is cell-based, Escherichia coli. A digest of the protocol:
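MIC was the lowest concentration visibly free of growth after 16–20 h at 37 °C, against 5×10^5 CFU/mL of the empty-pLBII DH5α control strain. Twofold compound dilutions were made in cation-adjusted Mueller-Hinton broth.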

For another test, the target named is E. coli PBP3 (Escherichia coli (strain K12), UniProt P0AD68). Put plainly: E. coli PBP3 Bocillin-FL fluorescence polarization competition binding assay. A digest of the protocol: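 Purified E. coli PBP (1.5 μM final) competed with inhibitor (0-1000 μM) for Bocillin-FL (0.1 μM final) in 50 mM Hepes pH 8.0, 300 mM NaCl, 5% glycerol. Fluorescence polarization (ex 490/em 520 nm) was read continuously for 60 min after Bocillin-FL addition. EC50 was the concentration that reduced Bocillin-FL binding by 50%.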
For orientation: Fluorescence polarisation rises when a labelled molecule tumbles more slowly, as on binding a larger partner.

The target in another test is E. coli PBP1a (Escherichia coli (strain K12), UniProt P02918). Briefly: Radioligand competition binding assay with 14C-labeled boronic acid probe, PBP1a. The source says:
To determine the ability of boronic acid-based test PBP inhibitors to bind Penicillin Binding Proteins (PBPs), a radio-labelled boronic acid PBP inhibitor
[drawing 751] was used in competition binding assays to determine boronic acid PBP inhibitor binding to PBP1a or PBP1b from Escherichia coli. PBP1a and PBP1b were purified as described previously (Bertsche, U.; et al., J. Biol. Chem. 2005, 280 (45), 38096-38101; Born, P.; et al., J. Biol. Chem. 2006. 281 (37), 26985-26993). To establish assay conditions for competition binding, an enzyme titration/saturation binding experiment was performed. Saturation binding was performed in a buffer comprised of 20 mM Tris (pH 7.5), 500 mM NaCl and 0.1% (v/v) TritonX-100, with PBP1a/PBP1b at a final concentration of 0.1 μM and Compound A at final concentrations ranging from 0-100 μM. Mixtures were incubated for 60 minutes, then applied to Zeba Spin Desalting columns or plates (ThermoFisher Scientific) and centrifuged at 1000-1500×g for 2 minutes. The flow through, containing PBP bound with Compound A, was recovered and 100 μL mixed with 5 mL of UltimaGold liquid scintillation cocktail (Perkin Elmer), and the radioactivity counted using a Beckman Coulter LS 6500 Multipurpose scintillation counter. PBP binding of Compound A approached saturation at 20 μM of ^14C-labeled probe. The competition binding assay was validated using the beta-lactam ampicillin, with Compound A at a final concentration of 20 μM, PBP1a/PBP1b at a final concentration of 0.1 μM. PBP1a/PBP1b was incubated with ampicillin in a 96-well microplate for 60 minutes, then Compound A was added and the mixtures incubated for an additional 60 minutes. The mixtures were then applied to Zeba Spin desalting plates and centrifuged at 1000×g for 2 minutes. The flow through was recovered and 100 μl mixed with 5 ml of UltimaGold liquid scintillation cocktail and the radioactivity counted. […] Binding assays with boronic acid PBP inhibitors were performed in an identical fashion. The potency of boronic acid PBP inhibitors was reported as the EC50 value.
A general note: In a radioligand displacement assay an active substance lowers the binding of a labelled ligand.

The test system of a further test is K. pneumoniae UMM. Put plainly: microbe, parasite or virus in culture. To be noted: Klebsiella pneumoniae; K. pneumoniae UMM producing SHV-5 and KPC-2; read-out: MIC K. pneumoniae UMM. The test is classed as cell-based. Summed up:
(§1)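 Broth microdilution MICs followed CLSI methods in cation-supplemented Mueller-Hinton broth, with 2-fold serial compound dilutions. Log-phase cultures grown 3–5 h were added to a starting inoculum of 5×10^5 CFU/mL and incubated 16–20 h at 37 °C. The MIC was read visually as the lowest concentration with no growth.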

The next test has as its system E. coli AG100A. Put plainly: microbe, parasite or virus in culture. The format is cell-based. The conditions noted are these: Escherichia coli, read-out: MIC E. coli AG100A. Summed up:
as §1

Another test relates to E. coli 901C. Briefly: microbe, parasite or virus in culture. The conditions noted are these: Escherichia coli; hyper-permeable E. coli 901C, broth microdilution; read-out: MIC E. coli 901C. The test is classed as cell-based. Summed up:
as §1
For orientation: Broth dilution looks for growth in wells or tubes with falling amounts of substance.

Another test relates to E. coli ATCC 25922. Briefly: Broth microdilution MIC, E. coli ATCC 25922. The conditions noted are these: Escherichia coli, ATCC25922; E. coli ATCC 25922, broth microdilution; read-out: MIC E. coli 25922. The test is classed as cell-based. Summed up:
as §1

The next test addresses E. coli PBP1b (Escherichia coli (strain K12), UniProt P02919). Put plainly: Radioligand competition binding assay with 14C-labeled boronic acid probe, PBP1b.
A further test relates to E. coli AG100. Put plainly: Broth microdilution MIC, E. coli AG100 (wild-type parent). To be noted: Escherichia coli; wild-type parent E. coli AG100, broth microdilution; read-out: MIC E. coli AG100. The format is cell-based. Summed up: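 Starting inoculum of 5×10^5 CFU/mL, from colonies grown 3-5 h in Mueller-Hinton broth with divalent cations, added to two-fold compound dilution series.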

The test system of a further test is K. pneumoniae SI-117. Put plainly: microbe, parasite or virus in culture. The format is cell-based. To be noted: Klebsiella pneumoniae, SI117, read-out: MIC K. pneumoniae SI-117. A digest of the protocol:
as §1

The subject of the next test is E. coli D22. Briefly: microbe, parasite or virus in culture. To be noted: Escherichia coli; hyper-permeable E. coli D22, broth microdilution; read-out: MIC E. coli D22. The format is cell-based. A digest of the protocol:
as §1

The subject of a further test is K. pneumoniae 848844. Put plainly: microbe, parasite or virus in culture. The format is cell-based, Klebsiella pneumoniae. The conditions noted are these: Klebsiella pneumoniae; K. pneumoniae 848844 producing SHV-11 and KPC-2; read-out: MIC K. pneumoniae 848844. Summed up: as §1
The mark [3] stands for this setting: fluorescence polarization competition binding with Bocillin-FL, read-out: E. coli K12 PBP3 Potency.

Chain of E. coli PBP1a (P02918 whole entry): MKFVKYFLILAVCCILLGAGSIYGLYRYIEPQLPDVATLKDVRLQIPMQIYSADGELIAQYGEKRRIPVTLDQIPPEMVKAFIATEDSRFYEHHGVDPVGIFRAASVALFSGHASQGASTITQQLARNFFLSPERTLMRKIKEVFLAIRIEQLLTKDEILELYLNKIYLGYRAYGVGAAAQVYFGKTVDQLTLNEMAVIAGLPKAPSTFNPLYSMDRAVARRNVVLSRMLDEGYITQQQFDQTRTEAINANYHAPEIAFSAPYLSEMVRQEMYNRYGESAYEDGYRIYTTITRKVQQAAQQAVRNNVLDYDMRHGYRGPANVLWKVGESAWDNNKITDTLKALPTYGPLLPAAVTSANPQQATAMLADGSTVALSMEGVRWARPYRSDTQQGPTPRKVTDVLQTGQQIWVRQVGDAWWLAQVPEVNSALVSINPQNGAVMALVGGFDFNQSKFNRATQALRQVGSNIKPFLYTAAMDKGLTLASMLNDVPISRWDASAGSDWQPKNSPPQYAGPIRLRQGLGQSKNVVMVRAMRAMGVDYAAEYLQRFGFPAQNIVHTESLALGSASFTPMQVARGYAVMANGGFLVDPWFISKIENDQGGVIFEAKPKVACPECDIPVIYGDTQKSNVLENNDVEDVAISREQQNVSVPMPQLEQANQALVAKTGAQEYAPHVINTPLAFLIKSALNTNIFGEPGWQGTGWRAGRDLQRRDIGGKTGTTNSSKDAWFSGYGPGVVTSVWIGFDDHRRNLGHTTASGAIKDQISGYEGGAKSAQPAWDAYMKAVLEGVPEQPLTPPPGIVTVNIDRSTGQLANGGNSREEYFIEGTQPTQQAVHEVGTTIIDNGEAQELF
Chain of E. coli PBP3 (P0AD68 whole entry): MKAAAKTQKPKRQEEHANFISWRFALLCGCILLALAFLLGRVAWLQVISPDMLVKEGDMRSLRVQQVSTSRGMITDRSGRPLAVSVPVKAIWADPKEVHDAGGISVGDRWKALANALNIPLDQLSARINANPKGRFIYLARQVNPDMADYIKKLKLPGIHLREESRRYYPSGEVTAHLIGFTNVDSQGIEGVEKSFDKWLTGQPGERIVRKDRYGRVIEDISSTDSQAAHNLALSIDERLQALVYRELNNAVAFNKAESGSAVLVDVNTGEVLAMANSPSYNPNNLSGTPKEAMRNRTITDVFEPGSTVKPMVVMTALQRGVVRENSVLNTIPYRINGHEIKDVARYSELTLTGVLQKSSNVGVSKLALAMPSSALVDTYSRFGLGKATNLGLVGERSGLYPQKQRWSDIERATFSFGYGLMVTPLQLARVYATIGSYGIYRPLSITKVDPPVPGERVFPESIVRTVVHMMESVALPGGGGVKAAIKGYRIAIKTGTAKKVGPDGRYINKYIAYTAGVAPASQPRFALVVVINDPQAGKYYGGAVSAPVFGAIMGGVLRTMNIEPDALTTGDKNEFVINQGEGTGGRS
Chain of E. coli PBP1b (P02919 whole entry): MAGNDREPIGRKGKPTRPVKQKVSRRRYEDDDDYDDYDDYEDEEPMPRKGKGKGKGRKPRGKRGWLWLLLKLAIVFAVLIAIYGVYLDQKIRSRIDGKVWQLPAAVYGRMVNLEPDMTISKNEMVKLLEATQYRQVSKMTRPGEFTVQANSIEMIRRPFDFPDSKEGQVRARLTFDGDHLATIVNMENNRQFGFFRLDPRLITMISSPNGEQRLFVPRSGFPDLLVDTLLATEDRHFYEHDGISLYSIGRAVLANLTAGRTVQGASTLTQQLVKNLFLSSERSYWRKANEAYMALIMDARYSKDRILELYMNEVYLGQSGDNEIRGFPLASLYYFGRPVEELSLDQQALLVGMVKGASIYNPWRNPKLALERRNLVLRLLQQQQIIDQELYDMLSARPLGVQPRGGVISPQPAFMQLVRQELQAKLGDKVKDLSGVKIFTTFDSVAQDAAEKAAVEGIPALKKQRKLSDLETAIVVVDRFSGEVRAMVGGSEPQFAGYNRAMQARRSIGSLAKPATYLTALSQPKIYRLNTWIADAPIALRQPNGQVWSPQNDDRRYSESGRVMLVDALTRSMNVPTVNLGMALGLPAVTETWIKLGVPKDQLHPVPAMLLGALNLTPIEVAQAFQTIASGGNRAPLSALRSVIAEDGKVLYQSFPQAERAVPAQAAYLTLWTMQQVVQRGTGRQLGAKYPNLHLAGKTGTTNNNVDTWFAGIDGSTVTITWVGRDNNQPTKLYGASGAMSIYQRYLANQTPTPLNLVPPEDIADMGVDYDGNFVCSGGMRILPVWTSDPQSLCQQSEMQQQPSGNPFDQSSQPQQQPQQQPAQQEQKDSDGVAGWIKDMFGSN

In the case of `CCN1CCN(C(=O)N[C@H](CCN)C(=O)N[C@H]2Cc3cccc(C(=O)O)c3OB2O)C(=O)C1=O` [Example 17, (R)-3-((R)-4-amino-2-(4-ethyl-2,3-dioxopiperazine-1-carboxamido)butanamido)-2-hydroxy-3,4-dihydro-2H-benzo[e][1,2]oxaborinine-8-carboxylic acid, trifluoroacetic acid salt], the MIC was 128 to 256 mg/L in test [1] and more than 512 mg/L in test [2]. Moreover, the values for the EC50 on E. coli PBP3 (setting [3]) and on E. coli PBP1a were more than 500 µM and less than 10 µM, respectively.

For the compound `CCN1CCN(C(=O)NC(C(=O)N[C@H]2Cc3cccc(C(=O)O)c3OB2O)c2ccc(O)c(O)c2)C(=O)C1=O` (stereo partly drawn) [Example 22, (3R)-3-(2-(3,4-dihydroxyphenyl)-2-(4-ethyl-2,3-dioxopiperazine-1-carboxamido)acetamido)-2-hydroxy-3,4-dihydro-2H-benzo[e][1,2]oxaborinine-8-carboxylic acid], the MIC lay in the range of 8 to 16 mg/L (≈ 14.8 to 29.6 µM) in [1]; 8 to 16 µg/mL in the test with K. pneumoniae UMM; 2 to 4 µg/mL in the test with E. coli AG100A; 0.5 to 1 µg/mL in the test on E. coli 901C; 8 to 16 mg/L (≈ 14.8 to 29.6 µM) in [2]; 8 to 16 µg/mL in the test on E. coli ATCC 25922. In addition, the MIC in the test with E. coli AG100 fell in the range of 8 to 16 µg/mL. Also, the EC50 on E. coli PBP3 (setting [3]) was less than 30 µM; on E. coli PBP1b, less than 10 µM; on E. coli PBP1a, less than 10 µM.

For the compound `CCN1CCN(C(=O)NC(C(=O)N[C@H]2Cc3cccc(C(=O)O)c3OB2O)c2ccc(OC)cc2)C(=O)C1=O` (stereo partly drawn) [Example 26, (3R)-3-(2-(4-ethyl-2,3-dioxopiperazine-1-carboxamido)-2-(4-methoxyphenyl)acetamido)-2-hydroxy-3,4-dihydro-2H-benzo[e][1,2]oxaborinine-8-carboxylic acid], the MIC in test [1] and in test [2] was 128 to 256 mg/L (≈ 238 to 476 µM) throughout. Besides, the figures for the EC50 at E. coli PBP3 and at E. coli PBP1a were 30 to 500 µM and less than 10 µM, respectively.

In the case of `CCN1CCN(C(=O)NC(C(=O)N[C@H]2Cc3cccc(C(=O)O)c3OB2O)c2cc(O)c(O)c(Cl)c2)C(=O)C1=O` (stereo partly drawn) [Example 45, (3R)-3-(2-(3-chloro-4,5-dihydroxyphenyl)-2-(4-ethyl-2,3-dioxopiperazine-1-carboxamido)acetamido)-2-hydroxy-3,4-dihydro-2H-benzo[e][1,2]oxaborinine-8-carboxylic acid], the MIC in [1] fell in the range of 8 to 16 mg/L (≈ 13.9 to 27.8 µM); with K. pneumoniae UMM it was 8 to 16 µg/mL; with E. coli AG100A, 8 to 16 µg/mL; in the test on E. coli 901C it was 0.5 to 1 µg/mL; in test [2], 8 to 16 mg/L (≈ 13.9 to 27.8 µM); in the test with E. coli ATCC 25922, 8 to 16 µg/mL. In the test on E. coli AG100, the MIC was 8 to 16 µg/mL. The EC50 was less than 30 µM at E. coli PBP3 (setting [3]), less than 10 µM on E. coli PBP1b and less than 10 µM on E. coli PBP1a.

In the case of `CCN1CCN(C(=O)NC(C(=O)N[C@H]2Cc3cccc(C(=O)O)c3OB2O)c2ccc(O)c(OCCN)c2)C(=O)C1=O` (stereo partly drawn) [Example 49, (3R)-3-(2-(3-(2-aminoethoxy)-4-hydroxyphenyl)-2-(4-ethyl-2,3-dioxopiperazine-1-carboxamido)acetamido)-2-hydroxy-3,4-dihydro-2H-benzo[e][1,2]oxaborinine-8-carboxylic acid], the MIC in test [2] was in the range of 32 to 64 mg/L (≈ 54.9 to 110 µM). The EC50 is 30 to 500 µM at E. coli PBP3 and less than 10 µM at E. coli PBP1a.

As to `CCN1CCN(C(=O)NC(C(=O)N[C@H]2Cc3cccc(C(=O)O)c3OB2O)c2cc(O)c(O)cc2Cl)C(=O)C1=O` (stereo partly drawn) [Example 85, (3R)-3-(2-(2-chloro-4,5-dihydroxyphenyl)-2-(4-ethyl-2,3-dioxopiperazine-1-carboxamido)acetamido)-2-hydroxy-3,4-dihydro-2H-benzo[e][1,2]oxaborinine-8-carboxylic acid], the MIC in test [1] was 32 to 64 mg/L (≈ 55.7 to 111 µM); in the test with K. pneumoniae UMM it was 32 to 64 µg/mL; in the test on E. coli AG100A, 8 to 16 µg/mL; with E. coli 901C, 0.5 to 1 µg/mL; in the test with E. coli ATCC 25922, 8 to 16 µg/mL; in the test on E. coli AG100 it was 8 to 16 µg/mL. The EC50 at E. coli PBP1b and at E. coli PBP1a was less than 10 µM in each case.

As for `O=C(O)c1cccc2c1OB(O)[C@@H](NC(=O)C(NC(=O)N1CCN(CCF)C(=O)C1=O)c1ccc(O)cn1)C2` (stereo partly drawn) [Example 99, (3R)-3-(2-(4-(2-fluoroethyl)-2,3-dioxopiperazine-1-carboxamido)-2-(5-hydroxypyridin-2-yl)acetamido)-2-hydroxy-3,4-dihydro-2H-benzo[e][1,2]oxaborinine-8-carboxylic acid], the MIC in test [1] is 32 to 64 mg/L (≈ 58.9 to 118 µM); in the test on K. pneumoniae UMM, 8 to 16 µg/mL; with E. coli AG100A it was 2 to 4 µg/mL; with E. coli 901C, less than 0.25 µg/mL; in the test with E. coli ATCC 25922 it was 32 to 64 µg/mL; in the test with E. coli AG100, 32 to 64 µg/mL. The EC50 is less than 30 µM on E. coli PBP3 (setting [3]) and 10 to 100 µM at E. coli PBP1a.

As to `Nc1ncc(C(NC(=O)N2CCN(CCF)C(=O)C2=O)C(=O)N[C@H]2Cc3cccc(C(=O)O)c3OB2O)s1` (stereo partly drawn) [Example 100, (3R)-3-(2-(2-aminothiazol-5-yl)-2-(4-(2-fluoroethyl)-2,3-dioxopiperazine-1-carboxamido)acetamido)-2-hydroxy-3,4-dihydro-2H-benzo[e][1,2]oxaborinine-8-carboxylic acid], the MIC in test [1] lay within 8 to 16 mg/L (≈ 14.6 to 29.2 µM); in the test with K. pneumoniae SI-117 it was 8 to 16 µg/mL; in the test on K. pneumoniae UMM it was 8 to 16 µg/mL; in the test with E. coli AG100A it was 2 to 4 µg/mL; in the test with E. coli 901C, 0.5 to 1 µg/mL; in the test on E. coli D22 it was 8 to 16 µg/mL. In addition, the MIC with E. coli ATCC 25922, in the test on K. pneumoniae 848844 and with E. coli AG100 was 32 to 64 µg/mL throughout. Also, the EC50 was in the range of 30 to 500 µM at E. coli PBP3 and 10 to 100 µM at E. coli PBP1a.

For `CC1(C)S[C@@H]2[C@H](NC(=O)[C@H](N)c3ccccc3)C(=O)N2[C@H]1C(=O)O` [ampicillin, reference compound], the EC50 at E. coli PBP3 (assay validation with beta-lactams, PBP 1.5 μM, Bocillin-FL 0.1 μM, read-out: EC50 for PBP3 (reduction of Bocillin-FL binding)) is 1.4 µM; on E. coli PBP1b (assay validation, Compound A 20 μM, PBP1a/PBP1b 0.1 μM, read-out: EC50 (inhibition of binding of Compound A) PBP1b), less than 0.5 µM; at E. coli PBP1a (assay validation, Compound A 20 μM, PBP1a/PBP1b 0.1 μM, read-out: EC50 (inhibition of binding of Compound A) PBP1a), less than 0.5 µM.
